# Assay results: patent US6413245B1, “Sub-tenon drug delivery” (Alcon Universal Ltd., priority 1999, dated 2002)
# Test: Retinal concentration of angiostatic steroid after sub-Tenon drug depot in rabbit eyes
# Assay type: in vivo
# Settings: drug depot on outer surface of sclera, slightly posterior of the equator, measured the day after the injection, New Zealand White rabbits
# Text: Sclera 16 and Tenon's capsule 34 define the exterior surface of the globe of eye 10. For treatment of ARMD, CNV, retinopathies, retinitis, uveitis, cystoid macular edema (CME), glaucoma, and other diseases or conditions of posterior segment 26, it is preferable to dispose a depot 38 of a specific quantity of an ophthalmically acceptable pharmaceutically active agent directly on the outer surface of sclera 16 and below Tenon's capsule 34. In addition, in cases of ARMD and CME it is most preferable to dispose depot 38 directly on the outer surface of sclera 16, below Tenon's capsule 34, and generally above macula 30. In a study using New Zealand White rabbits, a drug depot of 4,9(11)-Pregnadien-17α,21-diol-3,20-dione-21-acetate, an angiostatic steroid available from Steraloids, Inc. of Wilton, New Hampshire, was disposed directly on the outer surface of the sclera, below the Tenon's capsule, and slightly posterior of the equator of the rabbit eyes. […] Given the fact that the Tenon's capsule of a New Zealand White rabbit is very thin, these beneficial results are highly unexpected. It is important to note that Tenon's capsule 34 of human eye 10 is also very thin. […]
smiles,measurement,value
"CC(=O)OCC(=O)[C@@]1(O)CC[C@H]2[C@@H]3CCC4=CC(=O)CC[C@]4(C)C3=CC[C@@]21C [4,9(11)-Pregnadien-17α,21-diol-3,20-dione-21-acetate]","concentration of the angiostatic steroid, averaged over the entire retina, relative to a depot located below the conjunctiva but above the Tenon's capsule",about ten times greater
